# Test results published in patent publication US6699676B1, “Uses of ouabain and ouabain-like molecules in apoptosis related pathologies” (Corporation du Centre de Recherche du Centre, Hospitalier …, priority 1999, dated 2004).
# Test system: VSMC
# Experiment: DNA synthesis, serum-induced [3H]-thymidine incorporation in VSMC
# Assay type: cell-based, rat
# Experimental: As with ouabain, VSMC apoptosis was blocked by inhibition of the Na^+,K^+ pump in K^+-depleted medium (Table 1). […] DNA synthesis in VSMC, measured as serum-induced [^3H]-thymidine incorporation, was also insensitive to 5 hours preincubation with ouabain and was decreased by ˜60% only after 48 hours of the Na^+, K^+ pump inhibition (data not presented).
structure (smiles),measurement,setting,value
"C[C@@H]1O[C@@H](O[C@H]2C[C@@H](O)[C@]3(CO)[C@H]4[C@H](O)C[C@]5(C)[C@@H](C6=CC(=O)OC6)CC[C@]5(O)[C@@H]4CC[C@]3(O)C2)[C@H](O)[C@H](O)[C@H]1O [Ouabain, 1β,3β,5,11α,14,19-hexahydroxycard 20 [22]-enolide 3-[6-deoxy-α-L-mannopyrano-sidel]]","DNA synthesis, serum-induced [^3H]-thymidine incorporation",5 hours preincubation with ouabain,insensitive
same,"decrease of DNA synthesis, serum-induced [^3H]-thymidine incorporation","after 48 hours of Na+,K+ pump inhibition with ouabain",~60%
